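48-hour exposure; five concentrations; linearly interpolated endpoints. GI50 is the concentration that inhibits growth by half.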 Active and inactive are the calls of the source. Rule as the data show it: active = GI50 up to about 1.1 µM and inactive = higher. Where a SMILES comes first, the peptide text is derived from it. The star is where a group is joined. Cbz = O=C(OCc1ccccc1)*
Experiments:
Experiment in all cases: inhibition of tumour cell growth, NCI panel, 48 h
MDA-MB-231 = system: MDA-MB-231
HCT-116 = system: HCT-116
LOX IMVI = system: LOX IMVI
Malme-3M = system: Malme-3M
ACHN = system: ACHN
NCI-H23 = system: NCI-H23
MDA-N = system: MDA-N
OVCAR-8 = system: OVCAR-8
COLO 205 = system: COLO 205
M14 = system: M14
HL-60 = system: HL-60
CAKI-1 = system: CAKI-1
T47D = system: T47D
SW-620 = system: SW-620
MDA-MB-435 = system: MDA-MB-435
NCI-H522 = system: NCI-H522
786-0 = system: 786-0
SF-268 = system: SF-268
UACC-257 = system: UACC-257
HT-29 = system: HT-29
OVCAR-3 = system: OVCAR-3
Hs-578T = system: Hs-578T
CCRF-CEM = system: CCRF-CEM
MOLT-4 = system: MOLT-4
K562 = system: K562
SF-295 = system: SF-295
HOP-62 = system: HOP-62
UO-31 = system: UO-31
OVCAR-4 = system: OVCAR-4
SK-MEL-2 = system: SK-MEL-2
TK-10 = system: TK-10
UACC-62 = system: UACC-62
HOP-92 = system: HOP-92
SK-MEL-28 = system: SK-MEL-28
KM12 = system: KM12
SF-539 = system: SF-539
NCI-H226 = system: NCI-H226
NCI-H460 = system: NCI-H460
EKVX = system: EKVX
HCT-15 = system: HCT-15
SNB-19 = system: SNB-19
IGROV-1 = system: IGROV-1
HCC 2998 = system: HCC 2998
A549 = system: A549
OVCAR-5 = system: OVCAR-5
NCI/ADR-RES = system: NCI/ADR-RES
A498 = system: A498
SR = system: SR
SN12C = system: SN12C
MCF7 = system: MCF7
SK-MEL-5 = system: SK-MEL-5
PC-3 = system: PC-3
DU-145 = system: DU-145
RPMI-8226 = system: RPMI-8226
U-251 = system: U-251
RXF 393 = system: RXF 393
SK-OV-3 = system: SK-OV-3
SNB-75 = system: SNB-75
BT-549 = system: BT-549

Measured: GI50

CN1C(=O)N(c2ccccc2)C2(CCN(CC3COc4ccccc4O3)CC2)C1=O (stereo unspecified)
inactive: MDA-MB-231 > 100 µM | HCT-116 96.8 µM | LOX IMVI > 100 µM | Malme-3M > 100 µM | ACHN > 100 µM | NCI-H23 94.4 µM | MDA-N > 100 µM | OVCAR-8 > 100 µM | COLO 205 87.5 µM | M14 > 100 µM | HL-60 39.2 µM | CAKI-1 32.4 µM | T47D > 100 µM | SW-620 4.5 µM | MDA-MB-435 > 100 µM | NCI-H522 > 100 µM | 786-0 85.3 µM | SF-268 > 100 µM | UACC-257 82.2 µM | HT-29 95.1 µM | OVCAR-3 19.8 µM | Hs-578T > 100 µM | CCRF-CEM > 100 µM | MOLT-4 65.9 µM | K562 99.3 µM | SF-295 > 100 µM | HOP-62 > 100 µM | UO-31 > 100 µM | OVCAR-4 > 100 µM | SK-MEL-2 > 100 µM | TK-10 > 100 µM | UACC-62 > 100 µM | HOP-92 66.5 µM | SK-MEL-28 > 100 µM | KM12 > 100 µM | SF-539 > 100 µM | NCI-H226 59.2 µM | NCI-H460 96.2 µM | EKVX > 100 µM | SNB-19 5.71 µM | IGROV-1 > 100 µM | HCC 2998 > 100 µM | A549 > 100 µM | OVCAR-5 > 100 µM | NCI/ADR-RES > 100 µM | A498 > 100 µM | SR > 100 µM | SN12C > 100 µM | MCF7 > 100 µM | SK-MEL-5 71.6 µM | PC-3 > 100 µM | DU-145 > 100 µM | RPMI-8226 99.1 µM | U-251 > 100 µM | RXF 393 > 100 µM
> 100 µM: HCT-15

O=C(CN1CCOCC1)c1ccc2c(c1)oc(=O)n2CCN1CCCCC1
> 100 µM: HCT-15
active: SNB-75 0.179 µM
inactive: MDA-MB-231 > 100 µM | HCT-116 > 100 µM | LOX IMVI > 100 µM | Malme-3M > 100 µM | ACHN > 100 µM | NCI-H23 > 100 µM | MDA-N > 100 µM | OVCAR-8 > 100 µM | COLO 205 > 100 µM | M14 > 100 µM | HL-60 > 100 µM | CAKI-1 > 100 µM | SW-620 > 100 µM | MDA-MB-435 > 100 µM | 786-0 > 100 µM | SK-OV-3 > 100 µM | SF-268 48.3 µM | UACC-257 > 100 µM | HT-29 > 100 µM | OVCAR-3 > 100 µM | Hs-578T 7.8 µM | CCRF-CEM > 100 µM | MOLT-4 > 100 µM | K562 > 100 µM | SF-295 > 100 µM | HOP-62 > 100 µM | UO-31 > 100 µM | SK-MEL-2 > 100 µM | TK-10 > 100 µM | UACC-62 > 100 µM | SK-MEL-28 > 100 µM | KM12 > 100 µM | SF-539 > 100 µM | NCI-H226 > 100 µM | NCI-H460 > 100 µM | EKVX 82.2 µM | BT-549 > 100 µM | SNB-19 > 100 µM | IGROV-1 > 100 µM | OVCAR-5 > 100 µM | NCI/ADR-RES > 100 µM | A498 > 100 µM | SR > 100 µM | SN12C > 100 µM | MCF7 > 100 µM | SK-MEL-5 > 100 µM | PC-3 > 100 µM | DU-145 > 100 µM | RPMI-8226 > 100 µM | U-251 > 100 µM | RXF 393 > 100 µM

CCOC(=O)CNC(=O)C(C)NC(=O)C(NC(=O)OCc1ccccc1)C(C)C (stereo not drawn) (Cbz-Val-Ala-Gly-OEt; configuration not given here)
inactive: HCT-116 > 100 µM | Malme-3M > 100 µM | ACHN > 100 µM | NCI-H23 > 100 µM | MDA-N > 100 µM | OVCAR-8 > 100 µM | COLO 205 > 100 µM | M14 > 100 µM | CAKI-1 > 100 µM | SW-620 > 100 µM | MDA-MB-435 > 100 µM | NCI-H522 97.5 µM | 786-0 > 100 µM | SK-OV-3 > 100 µM | SF-268 > 100 µM | UACC-257 > 100 µM | HT-29 > 100 µM | OVCAR-3 > 100 µM | Hs-578T > 100 µM | MOLT-4 32 µM | K562 48.1 µM | SNB-75 > 100 µM | SF-295 > 100 µM | HOP-62 > 100 µM | UO-31 98.9 µM | SK-MEL-2 77.8 µM | TK-10 > 100 µM | UACC-62 > 100 µM | HOP-92 > 100 µM | SK-MEL-28 > 100 µM | KM12 > 100 µM | SF-539 > 100 µM | NCI-H226 > 10 µM | NCI-H460 > 100 µM | EKVX > 100 µM | BT-549 58.7 µM | SNB-19 > 100 µM | IGROV-1 > 100 µM | HCC 2998 90.2 µM | A549 > 100 µM | OVCAR-5 > 100 µM | NCI/ADR-RES > 100 µM | SR > 100 µM | SN12C > 100 µM | MCF7 > 100 µM | SK-MEL-5 > 100 µM | PC-3 > 100 µM | DU-145 > 100 µM | RPMI-8226 > 100 µM | U-251 > 100 µM | RXF 393 > 100 µM
> 100 µM: HCT-15
